Measurements taken from patent publication US20200360331A1, “COMPOSITIONS COMPRISING 15-HEPE AND/OR 15-HETrE AND METHODS OF TREATING OR PREVENTING CARDIOMETABOLIC DISEASE, METABOLIC SYNDROME, AND/OR RELATED DISEASES” (Afimmune Limited, priority 2019, published 2020).
Entries after “also recorded” stand apart in the source; their conditions may differ.

Assays:
[1] = tested on: TGF-β induced epithelial mesenchymal transition (EMT) protein production; assay: TGF-β induced EMT protein production in HepG2 cells; format: cell-based, human; conditions: increasing doses for 1 hour, then 200 pM TGF-β for 48 hours, listed as 15-HEPE
Method: The effects of 15-HEPE on TGF-β-induced signaling and cellular responses were determined. To test the effect of 15-HEPE on TGF-β-induced signaling, the activities of 15-HEPE to regulate TGF-β-stimulated Smad2 phosphorylation and nuclear translocation, both of which are key signaling events leading to TGF-β-induced cellular responses, were tested. One important biological activity of TGF-β is transcriptional activation of genes responsible for epithelial-mesenchymal transition (EMT), which is a crucial event in wound healing, tissue fibrosis, and cancer progression. The effect of 15-HEPE on TGFβ-induced epithelial mesenchymal transition related proteins (such as fibronectin, PAI-1, and N-cadherin etc.) expression in HepG2 and […] cells were assessed. HepG2 cells (human hepatoma cell line) were treated in increasing doses of 15-HEPE stage II in DMEM containing 0.1% of FBS for 1 hour and continually stimulated with or without 200 picomolar (pM) of TGF-β for 48 hours.
HepG2 cells (human hepatoma cell line) were treated in increasing doses of 15-HEPE stage II in DMEM containing 0.1% of FBS for 1 hour and continually stimulated with or without 200 picomolar (pM) of TGF-β for 48 hours. The two panels shown in FIG. 18A are two separate experiments run under the same experimental conditions.

[2] = tested on: TGF-β; assay: UUO study: quantitative RT-PCR of kidney, TGF-β; format: in vivo, C57BL/6 mice; conditions: UUO mice kidney
Method: (§1) Quantitative RT-PCR: Total ribonucleic acid (RNA) was extracted from kidney samples using RNAiso (Takara Bio, Japan) according to the manufacturer's instructions. One μg of RNA was reverse-transcribed using a reaction mixture containing […] (mM) of magnesium chloride (MgCl2) (F. Hoffmann-La Roche, Switzerland), 40 U RNase inhibitor (Toyobo, Japan), 0.5 mM dNTP (Promega, USA), 6.28 μM random hexamer (Promega), 5× first strand buffer (Promega), 10 mM dithiothreitol (Invitrogen, USA) and 200 U MMLV-RT (Invitrogen) in a final volume of 20 μL. The reaction was carried out for 1 hour at 37° C., followed by 5 minutes at 99° C. Real-time PCR was performed using real-time PCR DICE and TB Green™ Premix Ex Taq™ II (Takara Bio). To calculate the relative […] (mRNA) expression level, the expression of each gene (e.g., α-SMA, TIMP-1, TGF-β and Collagen Type 1) was normalized to that of reference gene 36B4 (gene symbol: Rplp0). Information regarding the PCR-primer sets and the plate layout are described in Tables 1 and 2.

[3] = tested on: Collagen Type 1; assay: UUO study: quantitative RT-PCR of kidney, Collagen Type 1; format: in vivo, C57BL/6 mice; conditions: UUO mice kidney
Method: as §1

[4] = tested on: TβR-II (type II TGF-β receptor); assay: Sucrose density gradient analysis in Mv1Lu cells, TβR-II; format: cell-based, mink
Method: Sucrose gradient ultracentrifugation and confocal microscopy were used to identify 15-HEPE induced microdomain translocation of TGF-β receptors by sucrose. Sucrose density gradient analysis of TGF-β receptors was conducted in the plasma membranes of Mv1Lu cells (mink lung epithelial cell) treated with 100 μM of 15-HEPE and an equal volume of DMSO (dimethyl sulfoxide) at 37° C. for 0, 1, 4, and 24 hours, and the cell lysates from these treated cells were subjected to sucrose density gradient ultracentrifugation. The sucrose gradient fractions were then analyzed by Western blot analysis using anti-TβR-I (type I TGF-β receptor), anti-TβR-II (type II TGF-β receptor), anti-TβR-III (type III TGF-β receptor, betaglycan), anti-EGFR (epidermal growth factor receptor), and anti-caveolin-1 antibodies. The lipid raft/caveolae, and non-lipid raft microdomain localization of TβR-I, TβR-II, TβR-III, EGFR and caveolin-1 in the plasma membrane of untreated cells or cells treated with 15-HEPE were assessed to determine the effects of 15-HEPE on the membrane microdomain localization of the TGF-β receptors.
A 15-HEPE sucrose density gradient analysis of TGF-β receptors was conducted in the plasma membranes of mink lung epithelial cell (Mv1 Lu) cells treated with 100 μM of 15-HEPE and an equal volume of dimethyl sulfoxide (DMSO) at 37° C. for 0, 1, 4, and 24 hours, and the cell lysates from these treated cells were subjected to sucrose density gradient ultracentrifugation. The sucrose gradient fractions were then analyzed by Western blot analysis using anti-TβR-I (type I TGF-β receptor—FIG. 18C), anti-TβR-II (type II TGF-β receptor—FIG. 18D), anti-TβR-III (type III TGF-β receptor, betaglycan—FIG. 18E), anti-EGFR (epidermal growth factor receptor—FIG. 18F), and anti-caveolin-1 antibodies (FIG. 18G). Fractions 4 to 5 contained lipid rafts/caveolae whereas fractions 7-10 were non-lipid raft fractions. […] Stars (★) indicate 15-HEPE increased abundance of TβR-I (24 hours) in the fraction in comparison with that of the control and shorter treatment durations (FIG. 18C). […] The triangles (▾) indicate translocation and decreased abundance of TβR-II in the fraction in comparison with control cells (FIG. 18D).

[5] = tested on: BDL-operated mice; assay: BDL study: serum biochemistry (ALT, total bilirubin); format: in vivo, C57BL/6J mice; conditions: for Serum ALT / Serum Total Bilirubin: BDL mice
Method: BDL Surgery: On Day 0 of the study, BDL surgery was performed under pentobarbital (Kyoritsu Seiyaku, Japan) anesthesia. The mouse's hair was first shaved, the abdominal cavity cut open, and the common bile duct was ligated twice with 7-0 surgical silk. The mouse's peritoneum and the skin were closed with sutures, and the mice were transferred to a clean cage (e.g., resting cage) until recovered from anesthesia. Sham operated mice had their common bile duct exposed but not ligated.
Sample Collection: For serum samples, non-fasting blood was collected in serum separate tubes without anticoagulant through direct cardiac puncture and centrifuged at 3,500×g for 4 minutes at 4° C. The supernatant was collected and stored at −80° C. for biochemistry (30 μL) and shipping (all the remaining). For liver samples, left lateral lobe was collected and cut into 6 pieces. Two pieces of left lateral lobe were fixed in Bouin's solution and then embedded in paraffin. Samples were stored at room temperature for histological analysis. The other 2 pieces of left lateral lobe were embedded in O.C.T. compound and quick frozen in liquid nitrogen. Samples were stored at −80° C. The remaining pieces of left lateral lobe was snap frozen in liquid nitrogen and stored at −80° C. for gene expression analyses. Right medial lobe, left medial lobe, right lobe and caudate lobe were snap frozen in liquid nitrogen and stored at −80° C. for shipping.

[6] = relative mRNA normalized to 36B4, 50 mg/kg PO QD Day 0-13
[7] = relative mRNA normalized to 36B4, 500 mg/kg PO QD Day 0-13
[8] = 50 mg/kg PO QD Day 0-13, Day 14
[9] = 250 mg/kg PO QD Day 0-13, Day 14
[10] = 500 mg/kg PO QD Day 0-13, Day 14
[11] = BDL mice, 50, 250 and 500 mg/kg

CC/C=C\CC(O)/C=C/C=C\C/C=C\C/C=C\CCCC(=O)O (stereo not shown) [DS102, 15-hydroxy-eicosa-5Z,8Z,11Z,13E,17Z-pentaenoic acid]
TGF-β induced EMT (pro-fibrotic) protein production [1]: blocks TGF-β induced EMT protein production; also recorded: blocked TGF-β induced pro-fibrotic protein production | TGF-β gene expression [2, 6]: 4.31 ± 0.69 | TGF-β gene expression [2, 7]: 5.37 ± 0.76 | Collagen Type 1 gene expression [3, 6]: 11.80 ± 1.78 | Collagen Type 1 gene expression [3, 7]: 14.09 ± 2.88 | TβR-II translocation ([4]; Mv1Lu cells, 100 μM, 1 to 4 hours): induced TβR-II translocation | TβR-II degradation ([4]; Mv1Lu cells, 100 μM, 24 hours): induce degradation | translocation and degradation of type II TGF-β receptors ([4]; summary, free acid or ethyl ester form): induced translocation and degradation of type II TGF-β receptors | Serum ALT [5, 8]: 402 ± 112 U/L | Serum Total Bilirubin [5, 8]: 26.8 ± 6.9 mg/dL | Serum ALT [5, 9]: 351 ± 155 U/L | Serum Total Bilirubin [5, 9]: 23.5 ± 9.8 mg/dL | Serum ALT [5, 10]: 383 ± 147 U/L | Serum Total Bilirubin [5, 10]: 26.2 ± 6.1 mg/dL | serum ALT level vs Vehicle group [5, 11]: no significant differences | serum total bilirubin level vs Vehicle group [5, 11]: no significant differences
